Test results published in patent publication US20090156530A1, “Norepinepherine Transporter Mutants and Uses Thereof” (priority 2007, published 2009).

Key:
NET [1] = target: T1, NET (Mus musculus, UniProt O55192); assay: NE transport assay in cortical synaptosomes; assay type: biochemical; conditions: for NE transport in KRH/Ca^2+ after drug treatment: 0.1-1 μM BIM, 5 μM KN93 or 10 μM W7, 15 min at 37° C.; for Effect on reduction in NET activity on switch from KRH/Ca^2+ to KRH/EGTA / Effect on elevation in NET activity triggered by addition of Ca^2+: pre-incubation with drug; for Effect on elevation in NET activity triggered by addition of Ca^2+: KRH/EGTA to KRH/Ca^2+
T1 construct: The pellets were collected as synaptosomes; from tissue; host or cells: mouse (C57/B16) brain cortex synaptosomes
T1 sequence (O55192 whole entry): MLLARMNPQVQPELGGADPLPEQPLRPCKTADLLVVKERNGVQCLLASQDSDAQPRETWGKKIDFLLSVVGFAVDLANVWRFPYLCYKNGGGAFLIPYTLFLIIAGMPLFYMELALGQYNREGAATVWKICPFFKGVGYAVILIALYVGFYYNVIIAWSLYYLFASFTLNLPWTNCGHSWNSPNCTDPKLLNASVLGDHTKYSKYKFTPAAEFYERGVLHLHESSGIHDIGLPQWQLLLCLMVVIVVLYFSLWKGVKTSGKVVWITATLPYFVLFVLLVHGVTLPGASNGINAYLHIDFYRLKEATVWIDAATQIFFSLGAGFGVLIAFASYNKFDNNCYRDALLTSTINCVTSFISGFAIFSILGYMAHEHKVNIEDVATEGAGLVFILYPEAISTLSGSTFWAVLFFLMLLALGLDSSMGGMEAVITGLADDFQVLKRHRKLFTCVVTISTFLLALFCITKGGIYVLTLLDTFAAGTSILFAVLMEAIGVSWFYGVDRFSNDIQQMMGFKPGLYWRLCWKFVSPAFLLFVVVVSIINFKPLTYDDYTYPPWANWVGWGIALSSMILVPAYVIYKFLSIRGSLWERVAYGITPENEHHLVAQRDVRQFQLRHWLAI
Description: Cell culture, transfection of cDNA or siRNA, generation of stable cell lines, preparation of cortical synaptosomes. CHO cells were maintained in DMEM/10% fetal bovine serum (FBS), 2 mM L-glutamine (L-Glu), 100 IU/ml penicillin, 100 μg/ml streptomycin (pen/strep). […]. The stable clones were selected using hygromycin B ([…], Invitrogen) and maintained in Ham's F12/10% FBS/L-Glu/pen/strep supplemented with Zeocin […] (Invitrogen). CAD-NET cells were generated by stably transfecting HA-NET in pcDNA3 into CAD cells and maintained in DMEM/F12/8% FBS/L-Glu/pen/strep/200 μg/ml of G418 (Mediatech). TransIT-LT1 transfection reagent (Mirus) was used for all transfections. All cells were plated on poly-D-lysine coated plates and incubated for 48 hrs for cDNA transfection and for 48 to 72 hrs for siRNA transfection prior to assays. For synaptosomal preparations, brain cortex was dissected from mice (C57/B16, Harlan) and homogenized in 10 mM HEPES, 0.32 M Sucrose, pH 7.4 using a Teflon pestle/homogenizer. Homogenates were centrifuged at 1,000 g, 5 min at 4° C., and then the supernatant were re-centrifuged at 16,000 g, 20 min at 4° C. The pellets were collected as synaptosomes.
Assay buffers, transport assays, Ca^2+ imaging. NE transport assays on synaptosomes (50-100 μg/assay reaction) or cells were described previously (Sung et al., 2003). Uptake assay was carried out in KRH/Ca^2+ (mM: 120 NaCl, 4.7 KCl, 1.2 KH2PO4, 10 HEPES, 1.2 MgSO4, 2.2 CaCl2, pH 7.4,) with 0.1 mM pargylnine, ascorbic acid, tropolone, and 1.8 mg/ml glucose, otherwise mentioned. KRH/EGTA is KRH with 0.2 mM EGTA and without CaCl2. When KRH/EGTA was used, KRH/Ca^2+ for the parallel experiment contained 0.2 mM EGTA as well. Uptake assays were initiated by addition of [^3H]-NE (1-[7,8-^3H] noradrenaline, Amersham Pharmacia) at 50 nM final concentration. For kinetics assays, 50, 100, 200 nM of [^3H]-NE, 400, 600, 800, 1,000, 1,200, 1,500 nM of 20% [^3H]-NE and 80% of unlabeled NE (Sigma) were used. Nonspecific uptake was defined using 1-10 μM desipramine. All assays were carried out at 37° C. for 10 min in triplicates. Ca^2+ imaging was performed as described previously (Apparsundaram et al., 2001). CHO cells were pre-loaded with […] fura-2/acetoxymethyl ester (fura-2/AM, Molecular Probe) and superfused with KRH/EGTA and 1 μM thapsigargin for 10 min. The medium was replaced with KRH/Ca^2+ or KRH/EGTA before measurement of intracellular Ca^2+. All experiments derive from at least 3 independent data and mean values were evaluated using a two-tailed Student's t-test or a one-way ANOVA, followed by Tukey's test, with p<0.05 considered significant (*). Data were analyzed using GraphPad Prism 4.
Protocols for restoration and depletion of Ca^2+ For uptake assay, synaptosomes were pre-incubated with drugs in KRH/Ca^2+. For increase of Ca^2+, synaptosomes were re-suspended in KRH/EGTA, transferred to fresh KRH/EGTA (EGTA to EGTA) or KRH/Ca^2+ (EGTA to Ca^2+), and incubated at 37° C. for 5 min prior to the addition of radiolabeled NE. NE uptake activity of synaptosomes in KRH/Ca^2+ was compared to the activity of synaptosomes in KRH/EGTA. For reduction of Ca^2+, synaptosomes were first resuspended in KRH/Ca^2+, divided into 2 aliquots, replaced with fresh KRH/Ca^2+ (Ca^2+ to Ca^2+) or KRH/EGTA (Ca^2+ to EGTA), and incubated at 37° C. for 5 min prior to the addition of radiolabeled NE. NE uptake activity of synaptosomes in KRH/EGTA was compared to the activity of synaptosomes in KRH/Ca^2+. Control cells were treated the same way except use of complete media with vehicle. Restoration of Ca^2+ for surface biotinylation was carried out by incubating cells in KRH/EGTA with 0.1-1 μM thapsigargin for 10 min at 37° C. to deplete Ca^2+. Cells were washed once with KRH/EGTA, replaced with KRH/EGTA or KRH/Ca^2+, and incubated for 1 min at RT to 5 min at 37° C. prior to biotinylation. […]

NET [2] = assay: NE transport assay in CAD-NET cells; assay type: cell-based, human; conditions: KRH/Ca^2+
Description: Uptake assay was carried out in KRH/Ca^2+ (mM: 120 NaCl, 4.7 KCl, 1.2 KH2PO4, 10 HEPES, 1.2 MgSO4, 2.2 CaCl2, pH 7.4,) with 0.1 mM pargylnine, ascorbic acid, tropolone, and 1.8 mg/ml glucose, otherwise mentioned. KRH/EGTA is KRH with 0.2 mM EGTA and without CaCl2. When KRH/EGTA was used, KRH/Ca^2+ for the parallel experiment contained 0.2 mM EGTA as well. […] Nonspecific uptake was defined using 1-10 μM desipramine. All assays were carried out at 37° C. for 10 min in triplicates. […] All experiments derive from at least 3 independent data and mean values were evaluated using a two-tailed Student's t-test or a one-way ANOVA, followed by Tukey's test, with p<0.05 considered significant (*).

NET [3] = assay: Whole cell patch clamp recording of NET currents in SCG neurons; assay type: cell-based, rat; conditions: 200 μM CdCl2, 5 μM KN93 15 min, 2 μM STO609 20 min
Description: Whole Cell Patch Clamp Recording of NET currents. Patch clamp experiments were performed using an amplifier Axopatch 200B with a low-pass filter set at 1 kHz. Quartz patch pipettes with 5-7 MΩ resistance were pulled by a programmable puller (model P-2000, Sutter Instruments Novato, Calif.) and filled with the internal solution containing (in mM): 120 KCl, 2 MgCl2, 10 HEPES, 2 MgATP, 30 dextrose and adjusted to pH 7.35. SCG neurons were washed twice with a control solution containing mMs 130 NaCl, 5 CaCl2, 0.5 MgCl2, 1.3 KCl, 10 HEPES, 34 dextrose adjusted to pH 7.35 before experiments. NET-mediated current was defined as the current recorded in control condition minus the current recorded in presence of 5 μM desipramine. Neurons were clamp at −50 mV and the NET-mediated current was recorded by stepping the membrane voltage to −120 mV for 500 ms before and after a 2 sec depolarizing step at −10 mV. NET-mediated current was studied in the control condition, in presence of 200 μM CdCl2, after 15 min preincubation with 5 μM KN93 and after 20 min preincubation with 2 μM STO609.

human NET [4] = assay: Surface biotinylation of HA-NET in transiently transfected CHO cells; assay type: cell-based; conditions: for Effect on Ca^2+-depletion elicited reduction of NET surface density / Effect on Ca^2+-stimulated elevation of NET surface density: 5 μM KN93 30 min or 5 μM STO-609 1 hour; for Effect on Ca^2+-stimulated elevation of NET surface density: KRH/EGTA to KRH/Ca^2+; for Change of transporter surface density in response to Ca^2+ manipulations (addition or depletion): HA-tagged NET mutants in CHO cells
NET [5] = assay: Surface NET immunolabeling in cultured SCG neurons on high K+ depolarization; assay type: cell-based, rat; conditions: SCG cultures, high potassium buffer, preincubated with drug
Description: Primary neuronal culture, immunohistochemistry, electrophysiology. […] Surface-labeling of NET has been preformed by staining non-fixed SCG culture with anti-NET sera 43408 as described in (Savchenko et al., 2003). For detection of plasma membrane changes+/−depolarization, SCG neurons were preincubated with normal medium (2.5 mM K+) or in 40 mM or 90 mM K^+ for 15 min followed by incubation with NET 43408 antibody for 1 hr at RT in the absence of detergent. Cells were washed and fixed with 3% p-formaldehyde for 10 min prior to visualization of NET labeling using Cy3-conjugated anti-rabbit antibodies. Specimens from multiple fields were examined with a Zeiss LSM 510 Meta imaging system equipped with internal He/Ne and external Ar/Kr lasers. Images were collected were averaged across multiple fields of replicate experiments (n=3), pseudocolored for presentation, and pixel intensity calculated over processes immunopositive by double-staining for tubulin immunoreactivity in Metamorph.

human NET [6] = assay: [32P] metabolic labeling and immunoprecipitation of NET in stable CHO cells; assay type: cell-based; conditions: KRH/EGTA to KRH/Ca^2+ for 5 min
Description: Cell culture, transfection of cDNA or siRNA, generation of stable cell lines, preparation of cortical synaptosomes. CHO cells were maintained in DMEM/10% fetal bovine serum (FBS), 2 mM L-glutamine (L-Glu), 100 IU/ml penicillin, 100 μg/ml streptomycin (pen/strep). CHO-NET or CHO-NET T30A cells were generated by stably transfecting HA-NET or HA-NET T30A in pcDNA5/FRT (Invitrogen) into CHO-Flip-In cells (Invitrogen). The stable clones were selected using hygromycin B ([…], Invitrogen) and maintained in Ham's F12/10% FBS/L-Glu/pen/strep supplemented with Zeocin […] (Invitrogen). CAD-NET cells were generated by stably transfecting HA-NET in pcDNA3 into CAD cells and maintained in DMEM/F12/8% FBS/L-Glu/pen/strep/200 μg/ml of G418 (Mediatech). TransIT-LT1 transfection reagent (Mirus) was used for all transfections. All cells were plated on poly-D-lysine coated plates and incubated for 48 hrs for cDNA transfection and for 48 to 72 hrs for siRNA transfection prior to assays. […]
Biochemical analysis and phosphorylation. […] Phosphorylated bands were captured via Phosphoimager (Typhoon 9400, Molecular Dynamics/GE Healthcare Life Sciences) and analyzed using ImageQuant 5.2 (Molecular Dynamics). […] Exposed films of immunoblots were scanned using an Agfa Duoscan T1200 and the captured images processed in Adobe® Photoshop® and quantitated using NIH image.

human NET [7] = assay: NE transport assay in transiently transfected CHO cells; assay type: cell-based
Target sequence in this assay (P23975 48-617 limits assumed): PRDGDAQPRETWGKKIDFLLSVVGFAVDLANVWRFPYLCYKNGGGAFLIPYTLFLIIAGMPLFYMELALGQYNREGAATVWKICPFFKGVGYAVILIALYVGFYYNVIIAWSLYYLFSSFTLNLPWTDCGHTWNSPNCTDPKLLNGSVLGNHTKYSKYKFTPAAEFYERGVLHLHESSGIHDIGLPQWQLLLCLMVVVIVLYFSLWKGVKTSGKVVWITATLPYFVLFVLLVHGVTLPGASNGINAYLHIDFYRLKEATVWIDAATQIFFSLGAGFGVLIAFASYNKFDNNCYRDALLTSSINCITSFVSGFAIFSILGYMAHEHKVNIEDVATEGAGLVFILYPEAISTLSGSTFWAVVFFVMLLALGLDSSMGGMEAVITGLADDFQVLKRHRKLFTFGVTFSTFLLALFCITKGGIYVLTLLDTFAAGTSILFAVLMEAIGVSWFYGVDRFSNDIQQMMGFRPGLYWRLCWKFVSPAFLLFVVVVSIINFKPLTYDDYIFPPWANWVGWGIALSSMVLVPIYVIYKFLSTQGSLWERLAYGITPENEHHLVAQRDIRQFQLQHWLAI

NC[C@H](O)c1ccc(O)c(O)c1 [NE, norepinephrine]
NE transport Vmax (NET [1]; KRH/EGTA): 0.129+/−0.0129 pmol/mg protein/min

O=C(O)c1ccc2c3c1cccc3c(=O)n1c3ccccc3nc21 [STO-609]
Basal NE transport (NET [2]): did not influence basal NE transport | Effect on increase in NET current triggered by prior depolarization (NET [3]): prevented the stimulation-elicited increase in NET currents | Effect on increase in NET current triggered by prior depolarization (NET [3]; listed as STO609): converted the stimulation-induced increase into a stimulation-elicited decrease in NET currents | Effect on Ca^2+-depletion elicited reduction of NET surface density (human NET [4]; CHO cells): prevented a loss of NET from the surface | Effect on Ca^2+-stimulated elevation of NET surface density (human NET [4]; CHO cells): completely blocked the increase in surface NET protein

CdCl2
Effect on increase in NET current triggered by prior depolarization (NET [3]): prevented the increase in NET current

KN93
Basal NE transport (NET [2]): able to suppress NE transport | Effect on increase in NET current triggered by prior depolarization (NET [3]): prevented the stimulation-elicited increase in NET currents | Depolarization triggered increase of surface NET density (NET [5]): failed to increase surface NET density | NE transport in KRH/Ca^2+ after drug treatment (NET [1]): inhibited NE transport | NE transport after addition of Ca^2+, % of control (NET [1]; drug pre-treated synaptosomes, KRH/EGTA to KRH/Ca^2+ (2.2 mM final), 5 μM KN93): 140.5+/−11.2% | NE uptake when switched to KRH/EGTA, % of NE uptake in KRH/Ca^2+ (NET [1]; drug pre-treated synaptosomes, 5 μM KN93): 67.5+/−7.2% | Effect on reduction in NET activity on switch from KRH/Ca^2+ to KRH/EGTA (NET [1]): blunted | Effect on elevation in NET activity triggered by addition of Ca^2+ (NET [1]): significantly blunted the elevation in NET activity | Effect on Ca^2+-depletion elicited reduction of NET surface density (human NET [4]; CHO cells): blocked | Effect on Ca^2+-stimulated elevation of NET surface density (human NET [4]; CHO cells): blocked

NET T30A: human NET with T30 mutated to alanine, HA-tagged
Phosphorylation following Ca^2+ addition (human NET [6]): no phosphorylation | Basal surface expression versus wildtype hNET (human NET [4]; CHO cells, n=3): 117+/−18.5% | Change of transporter surface density in response to Ca^2+ manipulations (addition or depletion) (human NET [4]): complete lack of Ca^2+ sensitivity | Recovery of NE transport after Ca^2+ depletion (human NET [7]; 15 min Ca^2+ restoration including 10 min transport assay): failed to recover NE transport activity | NE transport activity in KRH/Ca^2+ (human NET [7]; transiently transfected CHO cells): equivalent to wild-type NET

NET T30E: human NET mutant designed to mimic constitutive phosphorylation at T30
Change of transporter surface density in response to Ca^2+ manipulations (addition or depletion) (human NET [4]): failed to change

bisindolylmaleimide I [BIM]
NE transport in KRH/Ca^2+ after drug treatment (NET [1]): inhibited NE transport | Effect on reduction in NET activity on switch from KRH/Ca^2+ to KRH/EGTA (NET [1]): failed to attenuate the loss of NET activity | Effect on elevation in NET activity triggered by addition of Ca^2+ (NET [1]): no ability to attenuate Ca^2+-stimulated NET activity
